Reference: ChEMBL document CHEMBL1149403, “Design, synthesis, and anti-Helicobacter pylori activity of erythromycin A (E)-9-oxime ether derivatives” (2006)
≈ marks a conversion by molar mass, not a printed value.

These compounds were tested on Helicobacter pylori (assay: Inhibitory activity against Helicobacter pylori NCTC-10638).
Assay type: functional

Row | Compound | MIC [µg/mL]
1 | CC[C@H]1OC(=O)[C@H](C)C(O[C@H]2C[C@](C)(OC)[C@@H](O)[C@@H](C)O2)[C@H](C)C(O[C@@H]2O[C@H](C)C[C@H](N(C)C)[C@@H]2O)[C@](C)(OC)C[C@@H](C)/C(=N\OCOc2ccccc2OC)[C@H](C)[C@@H](O)[C@]1(C)O (some centres not stated) | 0.02 (≈ 0.0222 µM)
2 | CC[C@H]1OC(=O)[C@H](C)C(O[C@H]2C[C@](C)(OC)[C@@H](O)[C@@H](C)O2)[C@H](C)C(O[C@@H]2O[C@H](C)C[C@H](N(C)C)[C@@H]2O)[C@](C)(O)C[C@@H](C)/C(=N\OCOc2ccccc2OC)[C@H](C)[C@@H](O)[C@]1(C)O (some centres not stated) | 0.03 (≈ 0.0339 µM)
3 | CC[C@H]1OC(=O)[C@H](C)C(=O)[C@H](C)C(O[C@@H]2O[C@H](C)C[C@H](N(C)C)[C@@H]2O)[C@](C)(OC)C[C@@H](C)/C(=N\OCOc2ccccc2OC)[C@H](C)[C@@H](O)[C@]1(C)O (some centres not stated) | 0.04 (≈ 0.0541 µM)
4 | CC[C@H]1OC(=O)[C@H](C)C(O[C@H]2C[C@](C)(OC)[C@@H](O)[C@@H](C)O2)[C@H](C)C(O[C@@H]2O[C@H](C)C[C@H](N(C)C)[C@@H]2O)[C@](C)(O)C[C@@H](C)/C(=N\OCOc2ccc(OC)cc2)[C@H](C)[C@@H](O)[C@]1(C)O (some centres not stated) | 0.02 (≈ 0.0226 µM)
5 | CC[C@H]1OC(=O)[C@H](C)C(=O)[C@H](C)C(O[C@@H]2O[C@H](C)C[C@H](N(C)C)[C@@H]2O)[C@](C)(OC)C[C@@H](C)/C(=N\OCOc2ccc(OC)cc2)[C@H](C)[C@@H](O)[C@]1(C)O (some centres not stated) | 0.02 (≈ 0.0271 µM)

The remaining compounds from weak to strong by MIC, led by results:

Row | MIC [µg/mL] | Compound
6 | 0.03 (≈ 0.0334 µM) | CC[C@H]1OC(=O)[C@H](C)C(O[C@H]2C[C@](C)(OC)[C@@H](O)[C@@H](C)O2)[C@H](C)C(O[C@@H]2O[C@H](C)C[C@H](N(C)C)[C@@H]2O)[C@](C)(OC)C[C@@H](C)/C(=N\OCOc2ccc(OC)cc2)[C@H](C)[C@@H](O)[C@]1(C)O (some centres not stated)
7 | 0.02 (≈ 0.0267 µM) | CC[C@H]1OC(=O)[C@H](C)[C@@H](O[C@H]2C[C@@](C)(OC)[C@@H](O)[C@H](C)O2)[C@H](C)[C@@H](O[C@@H]2O[C@H](C)C[C@H](N(C)C)[C@H]2O)[C@](C)(OC)C[C@@H](C)C(=O)[C@H](C)[C@@H](O)[C@]1(C)O [CLARITHROMYCIN]
